In one assay the target is T1, CARM1 (Homo sapiens, UniProt Q86X55).
T1 sequence (Q86X55 1-608): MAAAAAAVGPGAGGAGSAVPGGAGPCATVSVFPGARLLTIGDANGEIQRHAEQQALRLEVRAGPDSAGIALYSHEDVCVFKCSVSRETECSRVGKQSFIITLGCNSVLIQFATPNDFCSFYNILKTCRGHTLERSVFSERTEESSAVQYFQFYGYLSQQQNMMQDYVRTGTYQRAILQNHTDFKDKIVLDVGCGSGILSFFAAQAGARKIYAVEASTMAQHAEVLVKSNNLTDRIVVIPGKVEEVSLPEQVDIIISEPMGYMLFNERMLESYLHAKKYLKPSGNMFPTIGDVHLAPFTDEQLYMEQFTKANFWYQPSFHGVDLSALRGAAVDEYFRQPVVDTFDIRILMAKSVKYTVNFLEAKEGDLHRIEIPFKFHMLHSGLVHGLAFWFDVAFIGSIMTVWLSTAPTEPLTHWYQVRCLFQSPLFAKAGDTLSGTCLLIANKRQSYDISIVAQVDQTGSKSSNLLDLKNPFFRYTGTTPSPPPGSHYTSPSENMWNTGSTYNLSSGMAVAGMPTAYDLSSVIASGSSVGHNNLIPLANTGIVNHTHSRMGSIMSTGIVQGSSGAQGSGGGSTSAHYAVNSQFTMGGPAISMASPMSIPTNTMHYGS
In words: AlphaLISA CARM1 enzyme inhibition assay. Format: biochemical. Particulars: biotinylated H3 peptide 50 nM, SAM 300 nM, enzyme 0.1 nM, in duplicate. As for the experimental part: The enzymatic inhibitory activities of compounds were measured by the AlphaLISA assay provided by Shanghai ChemPartner Co., Ltd. The compounds selected from virtual screening were transferred to the assay plate (white opaque OptiPlate-384, PerkinElmer). 5 μL of enzyme solution (final concentration was 0.1 nM) or pH 8.0 tris-based assay buffer (for Min well) was added to the assay plate and then centrifuged at 1000 rpm for 1 min. Afterwards, the assay plate was incubated for 15 min at room temperature (RT). Then 5 μL of biotinylated H3 peptide/SAM mix (final concentrations were 50 nM and 300 nM, resp.) was added to the assay plate, which was covered with TopSeal-Afilm and incubated for 1 h at RT after centrifuging at 1000 rpm for 1 min (DMSO final concentration 1%). Next, 5 μL of acceptor beads (final concentration was 10 μg/mL) was added to stop the enzymatic reaction. […] Finally, the mixtures were incubated for 30 min at RT, and the signal was read in alpha mode using EnVision readers. The IC50 values were calculated by fit inhibition rates under different concentrations into GraphPad Prism 5.0 software. […] The end point was read in alpha mode using EnVision readers, and IC50 values were calculated in GraphPad Prism 5.0 software.
(Bead proximity is the source of the signal in Alpha formats.)

In another assay the target is PRMT1 (Homo sapiens, UniProt Q99873). In words: In vitro enzyme selectivity assay, PRMT1. The class given is biochemical. The conditions noted are these: in duplicate. How it is done:
(§1) The enzymatic inhibitory activities of compounds were measured by the AlphaLISA assay provided by Shanghai ChemPartner Co., Ltd. The compounds selected from virtual screening were transferred to the assay plate (white opaque OptiPlate-384, PerkinElmer). 5 μL of enzyme solution (final concentration was 0.1 nM) or pH 8.0 tris-based assay buffer (for Min well) was added to the assay plate and then centrifuged at 1000 rpm for 1 min. Afterwards, the assay plate was incubated for 15 min at room temperature (RT). Then 5 μL of biotinylated H3 peptide/SAM mix (final concentrations were 50 nM and 300 nM, resp.) was added to the assay plate, which was covered with TopSeal-Afilm and incubated for 1 h at RT after centrifuging at 1000 rpm for 1 min (DMSO final concentration 1%). Next, 5 μL of acceptor beads (final concentration was 10 μg/mL) was added to stop the enzymatic reaction. After incubating at room temperature for 60 min, 10 μL of donor beads was added (final concentration was 10 μg/mL) in subdued light and then centrifuged at 1000 rpm for 1 min. Finally, the mixtures were incubated for 30 min at RT, and the signal was read in alpha mode using EnVision readers. The IC50 values were calculated by fit inhibition rates under different concentrations into GraphPad Prism 5.0 software. […]

The next assay has as its target PRMT6 (Homo sapiens, UniProt Q96LA8). The assay can be described thus: In vitro enzyme selectivity assay, PRMT6. Format: biochemical. Particulars: in duplicate. As for the experimental part: as §1
For another assay, the system named is HELA (cervical cancer). The assay can be described thus: Cell viability (MTT) assay, HELA. Format: cell-based, human. The conditions noted are these: 24 hrs, 48 hrs, 72 hrs, Figure 2. How it is done: (§2) The three cell lines, HELA, K562, and MCF7, were purchased from the American Type Culture Collection (ATCC). HELA, K562, and MCF7 were cultured in DMEM (Life Technologies) supplemented with 10% FBS. All of the cell lines were seeded into 96-well plates at an appropriate density and then treated with compounds of different concentrations or DMSO control. After 24 hrs, 48 hrs, and 72 hrs, cell viabilities were measured by the MTT assay. It has been reported that CARM1 was a potential target in many cancers; thus it is well accepted that inhibiting CARM1 could affect cancer cell proliferation. In this study, three human tumor cell lines including HELA (cervical cancer), K562 (myeloid leukemia), and MCF7 (breast cancer) were chosen to evaluate the cellular activity of the two compounds DC_C11 and DC_[…]. Sinefungin, a pan-PRMTs inhibitor which has the same scaffold as the cofactor SAM does, was evaluated for control experiment. […] In the three cell lines, DC_[…] presents better antiproliferative cellular activity, which is consistent with their inhibitory activity in vitro. Combined with the biological data in vitro, we confirmed that compounds DC_C11 and DC_[…] are cell membrane permeable, which presented promising activity both in vitro and in cellular environment.  Figure 2 Antiproliferative effect of DC_C11 and DC_[…] on several cancer cell lines. (a-c) Time-dependent and dose-dependent inhibitory effect of DC_C11 on HELA, K562, and MCF7 within 24 hrs, 48 hrs, and 72 hrs, respectively. (d-f) Time-dependent and dose-dependent inhibitory effect of DC_[…] on HELA, K562, and MCF7 within 24 hrs, 48 hrs, and 72 hrs, respectively. (g-i) Time-dependent and dose-dependent inhibitory effect of Sinefungin on HELA, K562, and MCF7 within 24 hrs, 48 hrs, and 72 hrs, respectively.

The subject of a further assay is K562 (myeloid leukemia). The assay can be described thus: Cell viability (MTT) assay, K562. The class given is cell-based, human. Particulars: 24 hrs, 48 hrs, 72 hrs, Figure 2. As for the experimental part:
as §2

A further assay has as its system MCF7 (breast cancer). The assay can be described thus: Cell viability (MTT) assay, MCF7. The class given is cell-based, human. Particulars: 24 hrs, 48 hrs, 72 hrs, Figure 2. How it is done: as §2
For a further assay, the target named is PRMT5 (Homo sapiens, UniProt O14744). In words: In vitro enzyme selectivity assay, PRMT5. The conditions noted are these: at a concentration of 50 μM; read-out: inhibition rate of PRMT5. Format: biochemical. As for the experimental part: as §1
Chain of PRMT5 (O14744 whole entry, species assumed): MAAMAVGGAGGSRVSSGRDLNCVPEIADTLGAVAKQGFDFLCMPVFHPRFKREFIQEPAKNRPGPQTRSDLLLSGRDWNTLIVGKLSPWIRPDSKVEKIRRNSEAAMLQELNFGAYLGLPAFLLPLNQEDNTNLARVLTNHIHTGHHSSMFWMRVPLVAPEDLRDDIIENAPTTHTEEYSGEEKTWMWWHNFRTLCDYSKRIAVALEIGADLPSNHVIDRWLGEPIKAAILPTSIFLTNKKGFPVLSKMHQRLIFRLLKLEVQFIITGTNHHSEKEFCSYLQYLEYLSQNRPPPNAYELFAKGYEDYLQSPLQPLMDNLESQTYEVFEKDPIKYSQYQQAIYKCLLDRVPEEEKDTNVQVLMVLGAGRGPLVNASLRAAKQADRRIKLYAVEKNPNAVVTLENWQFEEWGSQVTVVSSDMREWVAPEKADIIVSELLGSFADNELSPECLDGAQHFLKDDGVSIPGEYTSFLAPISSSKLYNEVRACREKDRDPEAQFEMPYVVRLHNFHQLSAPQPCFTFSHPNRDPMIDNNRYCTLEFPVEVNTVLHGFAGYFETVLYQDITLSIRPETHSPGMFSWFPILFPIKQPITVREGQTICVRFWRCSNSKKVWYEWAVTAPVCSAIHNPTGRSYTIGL
Chain of PRMT5 (Q9BQA1 whole entry partner, species assumed): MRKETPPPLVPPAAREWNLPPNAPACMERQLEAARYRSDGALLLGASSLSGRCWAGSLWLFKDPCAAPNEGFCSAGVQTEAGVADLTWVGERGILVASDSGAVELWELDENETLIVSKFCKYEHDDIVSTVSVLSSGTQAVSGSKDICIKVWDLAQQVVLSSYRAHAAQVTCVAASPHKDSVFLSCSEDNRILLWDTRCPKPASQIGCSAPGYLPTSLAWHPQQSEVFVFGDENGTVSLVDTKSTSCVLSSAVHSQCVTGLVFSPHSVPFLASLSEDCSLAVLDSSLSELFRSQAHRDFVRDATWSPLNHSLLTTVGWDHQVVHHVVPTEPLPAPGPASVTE

These results are taken from PMC5107250, “Identification of Novel Inhibitors against Coactivator Associated Arginine Methyltransferase 1 Based on Virtual Screening and Biological Assays” (BioMed Research International, 2016).

In general, IC50 refers to the concentration that inhibits the measured activity by half. Low values mean greater potency, high ones weaker potency. Broadly, the inhibition is the share of the control response that was lost under treatment.

Chain of PRMT1 (Q99873 whole entry, species assumed): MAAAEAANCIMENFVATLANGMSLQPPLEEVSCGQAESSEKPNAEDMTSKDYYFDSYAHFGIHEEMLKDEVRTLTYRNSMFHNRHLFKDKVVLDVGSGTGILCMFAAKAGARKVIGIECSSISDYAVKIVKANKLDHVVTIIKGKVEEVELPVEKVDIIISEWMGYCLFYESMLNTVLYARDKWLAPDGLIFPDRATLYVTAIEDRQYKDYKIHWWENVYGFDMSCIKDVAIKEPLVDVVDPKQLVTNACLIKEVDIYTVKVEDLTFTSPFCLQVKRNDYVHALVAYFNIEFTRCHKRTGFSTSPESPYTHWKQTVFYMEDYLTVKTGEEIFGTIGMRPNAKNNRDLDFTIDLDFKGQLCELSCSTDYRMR
Chain of PRMT6 (Q96LA8 whole entry, species assumed): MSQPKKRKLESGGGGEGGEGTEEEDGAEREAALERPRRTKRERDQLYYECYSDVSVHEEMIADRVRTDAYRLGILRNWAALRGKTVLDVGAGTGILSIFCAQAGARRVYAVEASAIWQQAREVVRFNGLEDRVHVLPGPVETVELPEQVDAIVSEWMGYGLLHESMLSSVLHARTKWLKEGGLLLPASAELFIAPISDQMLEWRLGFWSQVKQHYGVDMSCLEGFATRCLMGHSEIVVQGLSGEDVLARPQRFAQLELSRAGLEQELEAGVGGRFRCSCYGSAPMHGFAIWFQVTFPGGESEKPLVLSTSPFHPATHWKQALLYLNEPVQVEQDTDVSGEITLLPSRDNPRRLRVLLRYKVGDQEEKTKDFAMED

With `O=C(c1ccccc1)c1c2c(cc3sc4ccccc4[n+]13)-c1cccc3cccc-2c13` [DC_C11], the IC50 against CARM1 worked out at 15 µM; against PRMT1, 36 µM; on PRMT6, 41 µM. The “Antiproliferative effect on HELA” value in the assay with HELA (cervical cancer) is “inhibit proliferation of cancer cells in a time-dependent and dose-dependent manner”. Also, the “Antiproliferative effect on K562” value with K562 (myeloid leukemia) is “inhibit proliferation of cancer cells in a time-dependent and dose-dependent manner”. Further, in the assay on MCF7 (breast cancer), the “Antiproliferative effect on MCF7” value is “inhibit proliferation of cancer cells in a time-dependent and dose-dependent manner”.
As to `CCOC(=O)c1c2c3ccccc3c3ccccc3c2cc2[n+]1CCc1ccccc1-2` [DC_C66], the IC50 against CARM1 is 1.8 µM; on PRMT1, 21 µM; against PRMT6, 47 µM. Also, the inhibition at 50 µM on PRMT5 is less than 50%. Further, in the assay with HELA (cervical cancer), the “Antiproliferative effect on HELA” value was “inhibit proliferation of cancer cells in a time-dependent and dose-dependent manner”. Also, in the assay with K562 (myeloid leukemia), the “Antiproliferative effect on K562” value is “inhibit proliferation of cancer cells in a time-dependent and dose-dependent manner”. For the same molecule, the “Antiproliferative effect on MCF7” value in the assay on MCF7 (breast cancer) was “inhibit proliferation of cancer cells in a time-dependent and dose-dependent manner”.
Turning to `Nc1ncnc2c1ncn2[C@@H]1O[C@H](C[C@@H](N)CC[C@H](N)C(=O)O)[C@@H](O)[C@H]1O` [Sinefungin, reference compound], the “Antiproliferative effect on HELA” value in the assay on HELA (cervical cancer) is listed as “weaker inhibitory activity”. Besides, the “Antiproliferative effect on K562” value with K562 (myeloid leukemia) was “weaker inhibitory activity”. Moreover, the “Antiproliferative effect on MCF7” value in the assay on MCF7 (breast cancer) was “weaker inhibitory activity”.
